Literature values as cited in patent publication CN114917233A, “一种包含核苷类似物的药物组合物及其制备方法和应用” (Suzhou Vigonvita Life Sciences Co Ltd, priority 2022, dated 2022).

Legend:
SARS-CoV-2 [1] = tested on: SARS-CoV-2
SARS-CoV-2 [2] = details: 5 μM, in vitro

CCC(CC)COC(=O)[C@H](C)N[P@](=O)(OC[C@H]1O[C@@](C#N)(c2ccc3c(N)ncnn23)[C@H](O)[C@@H]1O)Oc1ccccc1 [RDV]
inhibition of SARS-CoV-2 replication (in words) (SARS-CoV-2 [1]): 具有抑制作用

CC(C)C(=O)OC[C@H]1O[C@@](C#N)(c2ccc3c(N)ncnn23)[C@H](OC(=O)C(C)C)[C@@H]1OC(=O)C(C)C [式I化合物, (2R,3R,4R,5R)-2-(4-氨基吡咯并[2,1-f][1,2,4]三嗪-7-基)-2-氰基-5-((异丁酰氧基)甲基)四氢呋喃-3,4-二基双(2-甲基丙酸酯)]
replication inhibition rate (SARS-CoV-2 [2]): 99%

N#C[C@@]1(c2ccc3c(N)ncnn23)O[C@H](CO)[C@@H](O)[C@H]1O [GS-441524]
inhibition of SARS-CoV-2 replication (in words) (SARS-CoV-2 [1]): 具有抑制作用 | inhibition of virus replication compared with RDV (in words) (SARS-CoV-2 [1]; versus RDV): 更强的病毒复制抑制作用 | oral bioavailability (in words): 低
